For assay [1], the target named is Serine/threonine-protein kinase RIO2 (Homo sapiens) (UniProt Q9BVS4). Put plainly: Inhibition of N-terminal GST-fused full length human recombinant RIOK2 expressed in baculovirus Sf21 cells assessed as reduction in kinase auto-phosphorylation at 1 uM in presence of ATP incubated for 1 hr by ELISA method. (In general: An ELISA detects its analyte on a solid surface through an enzyme-linked reagent.)

For assay [2] the target is unchanged. Put plainly: Inhibition of N-terminal GST-fused full length human recombinant RIOK2 expressed in baculovirus Sf21 cells assessed as reduction in kinase auto-phosphorylation at 10 uM in presence of ATP incubated for 1 hr by ELISA method.
Assay [3] deals with FaDu. Nature of the assay: Cytotoxic activity against human FADU bulk cells incubated for 72 hrs by Cell-titer-Glo luminescence assay. The class given is functional, cell-based.
Assay [4] relates to FaDu. Nature of the assay: Cytotoxic activity against human FADU cancer stem cells incubated for 72 hrs by Cell-titer-Glo luminescence assay. The class given is functional, cell-based.
Assay [5] concerns A549. Nature of the assay: Cytotoxic activity against human A549 cancer stem cells incubated for 72 hrs by Cell-titer-Glo luminescence assay. The class given is functional, cell-based. The settings on record: A549, 72 h.
In assay [6] the test system is A549. Nature of the assay: Cytotoxic activity against human A549 bulk cells incubated for 72 hrs by Cell-titer-Glo luminescence assay. The class given is functional, cell-based. As to conditions: A549, 72 h.
The subject of assay [7] is ACHN. Put plainly: Cytotoxic activity against human ACHN bulk cells incubated for 72 hrs by Cell-titer-Glo luminescence assay. The class given is functional, cell-based.
The subject of assay [8] is ACHN. Nature of the assay: Cytotoxic activity against human ACHN cancer stem cells incubated for 72 hrs by Cell-titer-Glo luminescence assay. The class given is functional, cell-based.
Assay [9] deals with AMP-activated protein kinase, AMPK (Homo sapiens) (UniProt P54646+O43741+P54619+Q9UGJ0+Q9Y478+Q13131+Q9UGI9). Nature of the assay: Inhibition of AMPK in human HeLa cells assessed as kinase phosphorylation level at 5 uM incubated for 6 hrs by SDS-PAGE based chemiluminescence assay. The class given is cell-based. More on the design: scale not given: the % may be the effect or the level left.

For assay [10], the target named is T1, Ribosomal protein S6 kinase (Homo sapiens) (UniProt P51812+Q9UBS0+O75676+Q15349+O75582+P23443+Q9UK32+Q15418). Put plainly: Inhibition of RPS6 kinase in human HeLa cells assessed as p-RPS6 Ser235/236 phosphorylation level at 5 uM incubated for 6 hrs by SDS-PAGE based chemiluminescence assay. The class given is cell-based. More on the design: scale not given: the % may be the effect or the level left.

Assay [11] concerns the target T1, Ribosomal protein S6 kinase (Homo sapiens). Put plainly: Inhibition of RPS6 kinase in human HeLa cells assessed as p-RPS6 Ser240/244 phosphorylation level at 5 uM incubated for 6 hrs by SDS-PAGE based chemiluminescence assay. The class given is cell-based. More on the design: scale not given: the % may be the effect or the level left.

Serine/threonine-protein kinase RIO2 (Homo sapiens), sequence (Q9BVS4 whole entry, looked up, the tested form may be a part): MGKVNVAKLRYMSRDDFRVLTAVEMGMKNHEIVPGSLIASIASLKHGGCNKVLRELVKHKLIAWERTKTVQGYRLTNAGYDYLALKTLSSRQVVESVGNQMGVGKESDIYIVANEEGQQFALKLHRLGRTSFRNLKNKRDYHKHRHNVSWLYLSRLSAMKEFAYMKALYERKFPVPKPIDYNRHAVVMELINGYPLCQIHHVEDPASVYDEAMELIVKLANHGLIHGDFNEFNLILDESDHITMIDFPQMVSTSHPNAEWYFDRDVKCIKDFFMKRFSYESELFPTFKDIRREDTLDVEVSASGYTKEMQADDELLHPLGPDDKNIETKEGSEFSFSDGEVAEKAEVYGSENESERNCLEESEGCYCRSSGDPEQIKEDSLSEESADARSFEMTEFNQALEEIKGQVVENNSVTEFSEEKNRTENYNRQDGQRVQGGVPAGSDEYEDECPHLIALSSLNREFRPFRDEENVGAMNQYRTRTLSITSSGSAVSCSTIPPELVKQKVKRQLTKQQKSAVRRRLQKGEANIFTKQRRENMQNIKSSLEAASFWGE

For the compound `CCN(CC)CCNC(=O)c1c(C)[nH]c(/C=C2\C(=O)Nc3ccc(-c4ccnn4-c4ccccc4F)cc32)c1C`, the results for the inhibition in [1] and in assay [2] were 56% and 116%, respectively.
For `Cc1[nH]c(/C=C2\C(=O)Nc3ccc(-c4cnn(-c5ccccc5)c4)cc32)c(C)c1C(=O)NC[C@H]1CCCN1`, the results for the inhibition in [1] and in assay [2] were 9% and 126%, respectively.
Regarding `Cc1[nH]c(/C=C2\C(=O)Nc3ccc(-c4cnn(-c5ccccc5)c4)cc32)c(C)c1C(=O)N[C@H]1[C@@H]2CNC[C@@H]21`, the figures for the inhibition in [1] and in [2] were 22% and 134%, respectively.
For `Cc1[nH]c(/C=C2\C(=O)Nc3ccc(-c4cnn(-c5ccccc5)c4)cc32)c(C)c1C(=O)N[C@@H]1CCCNC1`, the results for the inhibition in [1] and in [2] were 22% and 130%, respectively.
`CCN(CC)CCNC(=O)c1c(C)[nH]c(/C=C2\C(=O)Nc3ccc(-c4cnn(-c5cnccn5)c4)cc32)c1C`: the inhibition (as a rule, the drop in the measured response relative to a control, in per cent) in assay [1] stood at 47%; in [2], 95%.
As to `CCN(CC)CCNC(=O)c1c(C)[nH]c(/C=C2\C(=O)Nc3ccc(-c4ccnn4-c4ccccn4)cc32)c1C`, the inhibition in assay [1] worked out at 14%; in assay [2], 93%.
As for `CCN(CC)CCNC(=O)c1c(C)[nH]c(/C=C2\C(=O)Nc3ccc(-c4cnn(-c5ccccc5Cl)c4)cc32)c1C`, the inhibition in assay [1] came to 4%; in assay [2], 99%.
The like results for `Cc1[nH]c(/C=C2\C(=O)Nc3ccc(-c4cnn(-c5ccccc5)c4)cc32)c(C)c1C(=O)NCCc1ncc[nH]1` were, in that order, -2% and 25%.
Take `CCN(CC)CCNC(=O)c1c(C)[nH]c(/C=C2\C(=O)Nc3ccc(-c4cnn(-c5nccs5)c4)cc32)c1C`: the inhibition in assay [1] was found to be 18%; in assay [2], 111%.
With `CCN(CC)CCNC(=O)c1c(C)[nH]c(/C=C2\C(=O)Nc3ccc(-c4ccnn4-c4ccc(OC)cc4)cc32)c1C`, the inhibition in assay [1] was found to be 34%; in assay [2] it was 106%.
For `CCN(CC)CCNC(=O)c1c(C)[nH]c(/C=C2\C(=O)Nc3ccc(-c4ccnn4-c4cccc(C)c4)cc32)c1C`, the inhibition in [1] worked out at 29%; in assay [2] it was 137%.
`CCN(CC)CCNC(=O)c1c(C)[nH]c(/C=C2\C(=O)Nc3ccc(-c4ccnn4-c4ccc(Cl)c(Cl)c4)cc32)c1C`: the values for the inhibition in assay [1] and in [2] were 18% and 87%, respectively.
Regarding `CCN(CC)CCNC(=O)c1c(C)[nH]c(/C=C2\C(=O)Nc3ccc(-c4ncc(-c5ccccc5)o4)cc32)c1C`, the IC50 (as a rule, the concentration needed to halve the response being measured) amounted to 7.35 µM in the assay with FaDu [3], 27.6 µM in the assay with FaDu [4] and 0.35 µM with A549 [5]. The values for the inhibition in [1] and in [2] were 32% and 56%, respectively.
Regarding `CCN(CC)CCNC(=O)c1c(C)[nH]c(/C=C2\C(=O)Nc3ccc(-c4ccnn4-c4ccc(C(F)(F)F)cc4)cc32)c1C`, the inhibition in assay [1] came out at 9%; in assay [2] it was 68%.
On to `CCN(CC)CCNC(=O)c1c(C)[nH]c(/C=C2\C(=O)Nc3ccc(-c4cnn(-c5ccccn5)c4)cc32)c1C`, for which the IC50 is 0.51 µM in the assay with FaDu [3]; 1.72 µM with A549 [6]; 1.24 µM with ACHN [7]; 0.05 µM in the assay with FaDu [4]; 2.53 µM in the assay with A549 [5]; 0.13 µM with ACHN [8]. For the same compound, the inhibition in assay [1] was determined as 36%; in assay [2], 86%.
On to `Cc1[nH]c(/C=C2\C(=O)Nc3ccc(-c4cnn(-c5ccccc5)c4)cc32)c(C)c1C(=O)NC[C@@H]1CCCN1`, for which the inhibition amounted to 13% in [1] and 94% in [2].
As for `CCN(CC)CCNC(=O)c1c(C)[nH]c(/C=C2\C(=O)Nc3ccc(-c4cnn(-c5ccc(S(N)(=O)=O)cc5)c4)cc32)c1C`, the inhibition in assay [1] came to 26%; in assay [2] it was 71%.
With `CCN(CC)CCNC(=O)c1c(C)[nH]c(/C=C2\C(=O)Nc3ccc(-c4cnn(-c5ccccc5)c4C)cc32)c1C`, the IC50 with FaDu [3] came out at 2.84 µM; with A549 [6], 29.2 µM; with ACHN [7], 3.54 µM; with FaDu [4], 1.31 µM; in the assay with A549 [5] it was 4.9 µM. In addition, the inhibition is 55% in assay [1] and 76% in assay [2].
For `CCOCCCNC(=O)c1c(C)[nH]c(/C=C2\C(=O)Nc3ccc(-c4cnn(-c5ccccc5)c4)cc32)c1C`, the inhibition in assay [1] was -7%; in assay [2], 43%.
The like results for `Cc1[nH]c(/C=C2\C(=O)Nc3ccc(-c4cnn(-c5ccccc5)c4)cc32)c(C)c1C(=O)NC1CCNCC1` were, in that order, 17% and 140%.
The like results for `Cc1[nH]c(/C=C2\C(=O)Nc3ccc(-c4cnn(-c5ccccc5)c4)cc32)c(C)c1C(=O)N[C@H]1CCCNC1` were, in that order, 1.4% and 122%.
Turning to `CCN(CC)CCNC(=O)c1c(C)[nH]c(/C=C2\C(=O)Nc3ccc(-c4cnn(-c5cccnc5)c4)cc32)c1C`, the inhibition in [1] was determined as 42%; in [2], 82%.
As to `CCN(CC)CCNC(=O)c1c(C)[nH]c(/C=C2\C(=O)Nc3ccc(-c4cnn(-c5cscn5)c4)cc32)c1C`, the inhibition in [1] is 41%; in assay [2] it was 99%.
Regarding `CCN(CC)CCNC(=O)c1c(C)[nH]c(/C=C2\C(=O)Nc3ccc(-c4cnn(C5CCOCC5)c4)cc32)c1C`, the IC50 was 4.22 µM in the assay with FaDu [3], 16 µM in the assay on A549 [6], 10.4 µM in the assay with ACHN [7] and 2.57 µM in the assay with FaDu [4]. For the same compound, the inhibition amounted to 32% in assay [1] and 68% in [2].
Consider `CCN(CC)CCNC(=O)c1c(C)[nH]c(/C=C2\C(=O)Nc3ccc(-c4cnn(-c5ccncn5)c4)cc32)c1C`, for which the inhibition amounted to 40% in [1] and 109% in [2].
As to `Cc1[nH]c(/C=C2\C(=O)Nc3ccc(-c4cnn(-c5ccccc5)c4)cc32)c(C)c1C(=O)NC1(CN2CCCCC2)CC1`, the inhibition in assay [1] was 6%; in assay [2] it was 107%.
As to `CCN(CC)CCNC(=O)c1c(C)[nH]c(/C=C2\C(=O)Nc3ccc(-c4ccnn4-c4ccc(F)cc4)cc32)c1C`, the inhibition in [1] turned out to be 39%; in [2], 104%.
The like results for `CCN(CC)CCNC(=O)c1c(C)[nH]c(/C=C2\C(=O)Nc3ccc(-c4ccnn4-c4ccncc4)cc32)c1C` were, in that order, -6% and 44%.
Regarding `Cc1[nH]c(/C=C2\C(=O)Nc3ccc(-c4cnn(-c5ccccc5)c4)cc32)c(C)c1C(=O)NCC1(N)CCCC1`, the inhibition in assay [1] came to 7%; in assay [2] it was 65%.
Regarding `CCN(CC)CCNC(=O)c1c(C)[nH]c(/C=C2\C(=O)Nc3ccc(-c4ccnn4-c4ccccc4)cc32)c1C`, the IC50 in the assay with FaDu [3] was determined as 3.01 µM; in the assay with A549 [6], 2.94 µM; in the assay on ACHN [7] it was 6.57 µM; in the assay on FaDu [4], 3.46 µM; in the assay on A549 [5] it was 5.54 µM; in the assay with ACHN [8] it was 1.17 µM. The results for the inhibition in [1] and in assay [2] were 55% and 100%, respectively.
Turning to `CCN(CC)CCN(C)C(=O)c1c(C)[nH]c(/C=C2\C(=O)Nc3ccc(-c4cnn(-c5ccccc5)c4)cc32)c1C`, the inhibition in assay [1] is 3%; in assay [2] it was 113%.
As for `CCN(CC)CCNC(=O)c1c(C)[nH]c(/C=C2\C(=O)Nc3ccc(-c4cnn(-c5ncccn5)c4)cc32)c1C`, the results for the inhibition in [1] and in assay [2] were 42% and 112%, respectively.
Regarding `CCN(CC)CCNC(=O)c1c(C)[nH]c(/C=C2\C(=O)Nc3ccc(-c4cnn(-c5ccccc5)c4)cc32)c1C`, the IC50 was determined as 6.25 µM with FaDu [3]; 5.35 µM in the assay with A549 [6]; 2.28 µM in the assay on ACHN [7]; 0.6 µM with FaDu [4]; 4.83 µM in the assay on A549 [5]. Further, the inhibition in [1] was 45%; in assay [2], 94%.
Turning to `Cc1cc(C)c(/C=C2\C(=O)Nc3ccc(-c4csc(C5CCNCC5)n4)cc32)[nH]1`, the IC50 in the assay with FaDu [3] was 1.62 µM; with A549 [6], 1.29 µM; in the assay on ACHN [7], 1.56 µM; in the assay with FaDu [4], 0.43 µM; in the assay with A549 [5] it was 0.88 µM; with ACHN [8] it was 0.09 µM. The figures for the Activity in assay [9], in assay [10] and in assay [11] were 47%, 76% and 76%, respectively.
As for `CCN(CC)CCNC(=O)c1c(C)[nH]c(/C=C2\C(=O)Nc3ccc(-c4ccnn4-c4cccc(OC)c4)cc32)c1C`, the inhibition in [1] was 51%; in assay [2], 98%.
Regarding `CCN(CC)CCCNC(=O)c1c(C)[nH]c(/C=C2\C(=O)Nc3ccc(-c4cnn(-c5ccccc5)c4)cc32)c1C`, the figures for the inhibition in assay [1] and in assay [2] were 20% and 96%, respectively.
Turning to `CCN(CC)CCNC(=O)c1c(C)[nH]c(/C=C2\C(=O)Nc3cccc(-c4ccc(-c5ccccc5)cc4)c32)c1C`, the IC50 in the assay on FaDu [3] is 1.11 µM; in the assay on A549 [6], 5.09 µM; in the assay with ACHN [7], 1.6 µM; in the assay on FaDu [4] it was 0.28 µM; in the assay on A549 [5], 4.32 µM; in the assay with ACHN [8] it was 0.33 µM. Further, the Activity was 8% in assay [9], 2% in assay [10] and 23% in assay [11].

Values taken from ChEMBL document CHEMBL3727348, “3-(aryl or heteroaryl) methyleneindolin-2-one derivatives as inhibitors of cancer stem cell pathway kinases for the treatment of cancer” (2014).
